PubChem BioAssay (NCI)
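Where inhibition never reached the appropriate level, the endpoint shown equals the highest concentration tested. Otherwise, values were interpolated linearly from a five-concentration, 48-hour dose response in 96-well plates. GI50 = concentration required for 50% inhibition of growth. TGI: concentration producing complete growth inhibition.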

Assays:
Test in all cases: NCI tumour cell line growth inhibition, 48 h
SR leukemia = tested on: SR leukemia
NCI-H460 lung = tested on: NCI-H460 lung
PC-3 prostate = tested on: PC-3 prostate
HS 578T breast = tested on: HS 578T breast
MDA-MB-435 = tested on: MDA-MB-435
SW-620 colon = tested on: SW-620 colon
SK-MEL-5 melanoma = tested on: SK-MEL-5 melanoma
NCI-H522 lung = tested on: NCI-H522 lung
NCI-H23 lung = tested on: NCI-H23 lung
HOP-92 NSCLC = tested on: HOP-92 NSCLC

| SMILES | GI50 (SR leukemia) [µM] | TGI (SR leukemia) [µM] | GI50 (NCI-H460 lung) [µM] | TGI (NCI-H460 lung) [µM] | GI50 (PC-3 prostate) [µM] | TGI (PC-3 prostate) [µM] | GI50 (HS 578T breast) [µM] | TGI (HS 578T breast) [µM] | GI50 (MDA-MB-435) [µM] | TGI (MDA-MB-435) [µM] | GI50 (SW-620 colon) [µM] | TGI (SW-620 colon) [µM] | GI50 (SK-MEL-5 melanoma) [µM] | TGI (SK-MEL-5 melanoma) [µM] | GI50 (NCI-H522 lung) [µM] | TGI (NCI-H522 lung) [µM] | GI50 (NCI-H23 lung) [µM] | TGI (NCI-H23 lung) [µM] | GI50 (HOP-92 NSCLC) [µM] | TGI (HOP-92 NSCLC) [µM] |
| --- | --- | --- | --- | --- | --- | --- | --- | --- | --- | --- | --- | --- | --- | --- | --- | --- | --- | --- | --- | --- |
| NC(N)=N/N=C(/c1ccccc1)c1ccccc1F | 0.809 | > 100 | 2.31 | 10.4 | 4.7 | > 57.7 | 2.79 | 11.6 | 0.347 | 3.81 | 2.75 | 21.1 | 0.911 | 12.5 | 3.12 | 14.7 | 5.02 | 27.8 | 18.3 | > 81.5 |
| CCN(CC)CCOc1ccc2c(C)c(C(=O)OC)oc2c1C(=O)/C=C/c1ccc(OC)cc1 | 0.565 | 2.95 | 3.65 | > 67.4 | 2.01 | 5.46 | 24.1 | 51.4 | 5.54 | 15.8 | 22.7 | 47.7 | 20.4 | 37.2 | 4.3 | 15.2 | 2.93 | 8.34 | 0.551 | 2.77 |
| NC(N)=N/N=C/c1c(-c2ccncc2)nc2sc(Cl)cn12 | 2.24 | 4.97 | 27.5 | > 59.2 | 5.8 | 18.8 | 18.8 | 41.7 | 6.63 | 13.6 | 7.34 | 18 | 18.1 | 36.2 | 10.1 | > 28.5 | 10 | 24.1 | 1.43 | 4.63 |
| Cc1ccc(C2=C(Cl)C(=O)C(c3ccc(C)cc3)=C(Cl)C2=O)cc1 | – | > 100 | – | > 100 | – | > 100 | – | > 100 | – | > 100 | – | > 100 | – | > 100 | – | > 100 | – | > 100 | – | > 100 |
| CC1=C(CNO)C2=C(C)C3(CC3)[C@@](C)(O)C(=O)C2=C1 | 4.49 | > 100 | 0.358 | 3.87 | 1.91 | 19.6 | 2.7 | 9.18 | 11.4 | 39 | 4.54 | > 100 | 1.68 | 3.22 | 0.679 | 5.25 | 0.473 | 2.72 | 1.12 | 4.62 |
| N#CCC1(n2cc(-c3ncnc4[nH]ccc34)cn2)CN(C2CCN(C(=O)c3ccnc(C(F)(F)F)c3F)CC2)C1 | 51.4 | > 100 | > 100 | > 100 | > 100 | > 100 | 28.1 | > 100 | 92.1 | > 100 | 83.5 | > 100 | 65.3 | > 100 | > 100 | > 100 | > 100 | > 100 | 20.7 | > 100 |
| O=C(Oc1ccc2c(c1)CN(Cc1ccccc1)CO2)c1ccccc1 | – | 69.2 | – | 36.1 | – | 29.4 | – | 61.5 | – | 54.2 | – | 56.4 | – | 31.1 | – | 22.3 | – | 30 | – | 28.2 |
| COc1c(O)c2c3c(c1OC)-c1ccccc1CC3N(S(=O)(=O)c1ccc(C)cc1)CC2 (stereo not given) | 1.36 | 7.09 | 1.58 | > 50 | 1.65 | > 50 | 1.2 | 4.03 | 1.07 | 2.92 | 1.6 | > 50 | 1.77 | > 50 | 1.28 | 3.55 | 1.17 | 2.71 | 1.41 | 29 |
| CCCCCCCCCCCCOC1C(C(CC(=O)N2CCN(Cc3ccc4c(c3)OCO4)CC2)NS(=O)(=O)c2cc(Cl)cc(Cl)c2)OC2OC(C)(C)OC21 (stereo not given) | 3.85 | 47.4 | 5.44 | 35 | 4.04 | > 100 | 9.17 | > 68.9 | 48 | > 100 | 16.4 | > 100 | 39.3 | > 100 | 26.9 | > 100 | 17.4 | > 100 | 15.1 | > 62.8 |
| CN(C)c1ccc(C2CC(C)(O)Oc3cc4c(cc32)OCO4)cc1 (stereo not given) | – | > 100 | – | > 100 | – | > 100 | – | > 100 | – | 74.1 | – | > 100 | – | > 100 | – | > 100 | – | > 100 | – | > 100 |
